Consider 38 compounds from patent US6977262B2, “Dihydropyrazolopyridine compounds and pharmaceutical use thereof” (Mitsubishi Pharma Corporation, priority 2001, dated 2005).

Usually melting point stands for the temperature, or range, at which the solid turns liquid. With `CC(C)(C)OC(=O)NCCC1=C(C#N)C(c2cccc3nonc23)c2c[nH]nc2N1` (centres unmarked) [Example 1017, 4-(2,1,3-Benzoxadiazol-4-yl)-6-(2-(N-t-butoxycarbonyl-amino)ethyl)-5-cyano-4,7-dihydro-2H-pyrazolo[3,4-b]pyridine], the melting point was determined as 231 °C.

Compound `N#CC1=C(C2CCCC2)Nc2n[nH]cc2C1c1cccc(C#N)c1Br` (centres unmarked) [Example 317, 4-(2-Bromo-3-cyanophenyl)-5-cyano-6-cyclopentyl-4,7-dihydro-2H-pyrazolo[3,4-b]pyridine] displayed a melting point of 247 °C.

Compound `CCCC1=C(C(=O)OCC)C(c2cccc(C#N)c2OC)c2c[nH]nc2N1` (centres unmarked) [Example 191, Ethyl 4-(3-cyano-2-methoxyphenyl)-4,7-dihydro-6-propyl-2H-pyrazolo[3,4-b]pyridine-5-carboxylate] displayed a melting point of 220 to 222 °C.

`CCCC1=C(C(=O)OCC)C(c2cc(F)ccc2F)c2c[nH]nc2N1` (centres unmarked) [Example 49, Ethyl 4-(2,5-difluorophenyl)-4,7-dihydro-6-propyl-2H-pyrazolo[3,4-b]pyridine-5-carboxylate] gave a melting point of 168 to 169 °C.

Turning to `N#CC1=C(C2CCC2)Nc2n[nH]cc2C1c1ccccc1Cl` (centres unmarked) [Example 313, 4-(2-Chlorophenyl)-5-cyano-6-cyclobutyl-4,7-dihydro-2H-pyrazolo[3,4-b]pyridine], the melting point was 188 °C.

Compound `CCCC1=C(C(=O)OCC)C(c2c(F)cccc2Cl)c2c[nH]nc2N1` (centres unmarked) [Example 56, Ethyl 4-(2-chloro-6-fluorophenyl)-4,7-dihydro-6-propyl-2H-pyrazolo[3,4-b]pyridine-5-carboxylate] registered a melting point of 180 to 183 °C.

Compound `CCN1CCC(C2=C(C#N)C(c3cccc4nonc34)c3c[nH]nc3N2)CC1` (centres unmarked) [Example 1033, 4-(2,1,3-Benzoxadiazol-4-yl)-5-cyano-4,7-dihydro-6-(1-ethylpiperidin-4-yl)-2H-pyrazolo[3,4-b]pyridine] gave a melting point of 231 °C.

`CCCC1=C(C(=O)OCC)C(c2ccccc2C(F)(F)F)c2c[nH]nc2N1` (centres unmarked) [Example 31, Ethyl 4,7-dihydro-6-propyl-4-(2-trifluoromethylphenyl)-2H-pyrazolo[3,4-b]pyridine-5-carboxylate] had a melting point of 198 to 202 °C.

For `N#CC1=C(C2CCCNC2)Nc2n[nH]cc2C1c1cccc(C#N)c1Br.O=C(O)C(F)(F)F` (centres unmarked), the melting point came out at 225 °C.

For `CN1CCCN(CC2=C(C#N)C(c3ccccc3Cl)c3c[nH]nc3N2)CC1.Cl.Cl` (centres unmarked), the melting point was 204 to 206 °C (dec.).

`CCCC1=C(C#N)C(c2ccccc2C#N)c2c[nH]nc2N1` (centres unmarked) [Example 133, 5-Cyano-4-(2-cyanophenyl)-4,7-dihydro-6-propyl-2H-pyrazolo[3,4-b]pyridine]: the melting point stood at 218 °C.

As to `CCCC1=C(C(=O)OCC)C(c2ccccc2Cl)c2cn(C(=O)Oc3ccccc3)nc2N1` (centres unmarked) [Example 218, Ethyl 4-(2-chlorophenyl)-4,7-dihydro-2-phenoxycarbonyl-6-propyl-2H-pyrazolo[3,4-b]pyridine-5-carboxylate], the melting point lay within 156 to 157 °C.

The compound `CCCC1=C(C#N)C(c2ccccc2Cl)c2c(n[nH]c2C2CCCCC2)N1` (centres unmarked) [Example 311, 4-(2-Chlorophenyl)-5-cyano-3-cyclohexyl-4,7-dihydro-6-propyl-2H-pyrazolo[3,4-b]pyridine] gave a melting point of more than 270 °C.

Compound `COc1ccc(C2=C(C#N)C(c3cccc4nsnc34)c3c[nH]nc3N2)cc1` (centres unmarked) [Example 165, 4-(2,1,3-Benzothiadiazol-4-yl)-5-cyano-4,7-dihydro-6-(4-methoxyphenyl)-2H-pyrazolo[3,4-b]pyridine] registered a melting point of 238 °C.

Compound `CCCC1=C(C#N)C(c2ccccc2Cl)c2c[nH]nc2N1` (centres unmarked) [Example 94, 4-(2-Chlorophenyl)-5-cyano-4,7-dihydro-6-propyl-2H-pyrazolo[3,4-b]pyridine] came in with a melting point of 248 °C.

Take `COC(CC1=C(C#N)C(c2cccc3nonc23)c2c[nH]nc2N1)OC` (centres unmarked) [Example 329, 4-(2,1,3-Benzoxadiazol-4-yl)-5-cyano-6-(2,2-dimethoxyethyl)-4,7-dihydro-2H-pyrazolo[3,4-b]pyridine]: the melting point is 115 °C.

Take `CC1=C(C(=O)NN)C(c2ccccc2Cl)c2c[nH]nc2N1` (centres unmarked) [Example 9, 4-(2-Chlorophenyl)-5-hydrazinocarbonyl-4,7-dihydro-6-methyl-2H-pyrazolo[3,4-b]pyridine]: the melting point amounted to 220 °C.

`CCCC1=C(C(=O)OCC)C(c2cccc(C#N)c2Cl)c2c[nH]nc2N1` (centres unmarked) [Example 180, Ethyl 4-(2-chloro-3-cyanophenyl)-4,7-dihydro-6-propyl-2H-pyrazolo[3,4-b]pyridine-5-carboxylate] gave a melting point of 213 to 215 °C.

The compound `N#CC1=C(C2CCCC2)Nc2n[nH]cc2C1c1cccc2nonc12` (centres unmarked) [Example 318, 4-(2,1,3-Benzoxadiazol-4-yl)-5-cyano-6-cyclopentyl-4,7-dihydro-2H-pyrazolo[3,4-b]pyridine] came in with a melting point of 193 °C.

In turn, `CSc1ccccc1C1C(C#N)=C(c2ccccc2)Nc2n[nH]cc21` (centres unmarked) [Example 143, 5-Cyano-4,7-dihydro-4-(2-methylthiophenyl)-6-phenyl-2H-pyrazolo[3,4-b]pyridine] had a melting point of 146 °C.

`CCCC1=C(C#N)C(c2cccc(Cl)c2Cl)c2c[nH]nc2N1` (centres unmarked) [Example 134, 5-Cyano-4-(2,3-dichlorophenyl)-4,7-dihydro-6-propyl-2H-pyrazolo[3,4-b]pyridine] returned a melting point of 242 °C.

On to `CCCC1=C(C(=O)OCC)C(c2cccc(Br)c2Br)c2c[nH]nc2N1` (centres unmarked) [Example 181, Ethyl 4-(2,3-dibromophenyl)-4,7-dihydro-6-propyl-2H-pyrazolo[3,4-b]pyridine-5-carboxylate], for which the melting point is 180 to 183 °C (dec.).

`CCOC(=O)C1=C(C(F)(F)F)Nc2n[nH]cc2C1c1cccc2ccccc12` (centres unmarked) [Example 24, Ethyl 4,7-dihydro-4-(1-naphthyl)-6-trifluoromethyl-2H-pyrazolo[3,4-b]pyridine-5-carboxylate] gave a melting point of 119 to 120 °C.

`CCCCc1[nH]nc2c1C(c1ccccc1Cl)C(C#N)=C(CCC)N2` (centres unmarked) [Example 304, 3-Butyl-4-(2-chlorophenyl)-5-cyano-4,7-dihydro-6-propyl-2H-pyrazolo[3,4-b]pyridine] came in with a melting point of 212 °C.

In turn, `CCCC1=C(C(=O)OCC)C(c2ccccc2Cl)c2cn(C(=O)OC(C)(C)C)nc2N1` (centres unmarked) [Example 205, Ethyl 2-tert-butoxycarbonyl-4-(2-chlorophenyl)-4,7-dihydro-6-propyl-2H-pyrazolo[3,4-b]pyridine-5-carboxylate] came in with a melting point of 144 to 147 °C.

As to `CC1=C([N+](=O)[O-])C(c2cccc(Cl)c2Cl)c2c[nH]nc2N1` (centres unmarked) [Example 125, 4-(2,3-Dichlorophenyl)-4,7-dihydro-6-methyl-5-nitro-2H-pyrazolo[3,4-b]pyridine], the melting point is more than 270 °C.

On to `CN(C)CCC1=C(C#N)C(c2cccc3nonc23)c2c[nH]nc2N1` (centres unmarked) [Example 1019, 4-(2,1,3-Benzoxadiazol-4-yl)-5-cyano-4,7-dihydro-6-(2-(N,N-dimethylamino)ethyl)-2H-pyrazolo[3,4-b]pyridine], for which the melting point stood at 215 °C.

With `N#CC1=C(c2cc3ccccc3o2)Nc2n[nH]cc2C1c1cccc2nonc12` (centres unmarked) [Example 175, 6-(Benzo[b]furan-2-yl)-4-(2,1,3-benzoxadiazol-4-yl)-5-cyano-4,7-dihydro-2H-pyrazolo[3,4-b]pyridine], the melting point was more than 270 °C.

With `CCCC1=C(C(=O)OCC)C(c2cccc3nonc23)c2c[nH]nc2N1` (centres unmarked) [Example 76, Ethyl 4-(2,1,3-benzoxadiazol-4-yl)-4,7-dihydro-6-propyl-2H-pyrazolo[3,4-b]pyridine-5-carboxylate], the melting point amounted to 207 °C.

Compound `CCCC1=C(C(=O)OCC)C(c2ccccc2C)c2c[nH]nc2N1` (centres unmarked) [Example 30, Ethyl 4,7-dihydro-4-(2-methylphenyl)-6-propyl-2H-pyrazolo[3,4-b]pyridine-5-carboxylate] yielded a melting point of 178 °C.

For the compound `CCCC1=C(C#N)C(c2ccccc2Cl)c2c(n[nH]c2C(C)(C)C)N1` (centres unmarked) [Example 310, 3-t-Butyl-4-(2-chlorophenyl)-5-cyano-4,7-dihydro-6-propyl-2H-pyrazolo[3,4-b]pyridine], the melting point was more than 270 °C.

For `CCOC(=O)CCC1=C(C#N)C(c2ccccc2Cl)c2c[nH]nc2N1` (centres unmarked) [Example 254, 4-(2-Chlorophenyl)-5-cyano-6-(2-ethoxycarbonylethyl)-4,7-dihydro-2H-pyrazolo[3,4-b]pyridine], the melting point fell in the range of 172 to 174 °C.

Turning to `CCCC1=C(C(=O)OCC)C(c2ccccc2CCC)c2cn[nH]c2N1` (centres unmarked) [Example 101, Ethyl 4,7-dihydro-6-propyl-4-(2-propylphenyl)-1H-pyrazolo[3,4-b]pyridine-5-carboxylate], the melting point was 197 °C.

Regarding `CCOC(=O)C1=C(C)Nc2n[nH]cc2C1c1cccc2nonc12` (centres unmarked) [Example 113, Ethyl 4-(2,1,3-benzoxadiazol-4-yl)-4,7-dihydro-6-methyl-2H-pyrazolo[3,4-b]pyridine-5-carboxylate], the melting point came out at 228 °C.

For the compound `N#CC1=C(c2cccs2)Nc2n[nH]cc2C1c1cccc2ccccc12` (centres unmarked) [Example 246, 5-Cyano-4,7-dihydro-4-(naphthalen-1-yl)-6-(thiophen-2-yl)-2H-pyrazolo[3,4-b]pyridine], the melting point is 214 °C.

Turning to `CCCC1=C(C(=O)OCC)C(c2ccnc3ccccc23)c2c[nH]nc2N1` (centres unmarked) [Example 74, Ethyl 4,7-dihydro-6-propyl-4-(quinolin-4-yl)-2H-pyrazolo[3,4-b]pyridine-5-carboxylate], the melting point was determined as 198 °C.

Compound `CCCC1=C(C(=O)OCC)C(c2cccc(F)c2C)c2c[nH]nc2N1` (centres unmarked) [Example 45, Ethyl 4-(3-fluoro-2-methylphenyl)-4,7-dihydro-6-propyl-2H-pyrazolo[3,4-b]pyridine-5-carboxylate] displayed a melting point of 159 to 162 °C.

For the compound `CCOC(=O)C1=C(c2ccc(OC)cc2)Nc2n[nH]cc2C1c1ccccc1Cl` (centres unmarked) [Example 86, Ethyl 4-(2-chlorophenyl)-4,7-dihydro-6-(4-methoxyphenyl)-2H-pyrazolo[3,4-b]pyridine-5-carboxylate], the melting point was 211 °C.
